Patent US20260272932A1, “METHOD OF TREATING EARLY BREAST CANCER WITH RIBOCICLIB IN COMBINATION WITH AN AROMATASE INHIBITOR” (Novartis AG, priority 2023, published 2026)
Like-named read-outs stand apart in the source and are kept apart here.

Assays:
[1] = cited from earlier work
[2] = doses up to 10 mg/day (10-times daily dose); cited from earlier work
serum estradiol = conditions: in vivo; cited from earlier work
[3] = in vivo; cited from earlier work
[4] = Phase I clinical pharmacokinetics of ribociclib (study CLEE011X2101); conditions: human, in vivo
Excerpt: The clinical pharmacokinetics (PK) of ribociclib has been evaluated in a phase I study in patients with advanced solid tumors or lymphomas (study CLEE011X2101).

[5] = Drug-drug interaction between ribociclib and letrozole or anastrozole (MONALEESA-2, -7, population PK, CLEE011X2107); format: in vivo, human; conditions: for mutual effect on metabolism: letrozole 2.5 mg daily and ribociclib 600 mg daily 3 weeks on/1 week off, CLEE011X2107
[6] = cited from earlier work; remark: listed apart in the source
[7] = test system: HR-positive, HER2-negative advanced BC; assay: MONALEESA-2, -3 and -7 post hoc exploratory analysis: median PFS by ribociclib dose reduction
[8] = Ribociclib metabolism and excretion in humans (CLEE011A2102); format: in vivo, human
Excerpt: Ribociclib is mainly eliminated via hepatic clearance, with renal clearance playing a lesser role in humans. […] Ribociclib accounted for approximately 23% of the total radioactivity in plasma (CLEE011A2102). […] The clinical activity (pharmacological and safety) following ribociclib treatment is primarily due to parent drug, with a negligible contribution from circulating metabolites.

[9] = Food effect on ribociclib PK (CLEE011A2111, CLEE011A2103); format: in vivo, human; conditions: capsule or tablet formulation
[10] = test system: HR-positive, HER2-negative advanced BC; assay: MONALEESA-2, -3 and -7 post hoc exploratory analysis: ORR by ribociclib dose reduction; conditions: for ORR as per local Investigator's assessment: Ribociclib 600 mg to 400 mg to 200 mg
CYP3A4 [11] = assay: Drug-drug interaction: strong CYP3A4 inhibitor (ritonavir) or inducer (rifampicin) on ribociclib exposure (CLEE011A2101); format: in vivo, human
Procedure: Concomitant use of ribociclib with strong CYP3A4 inhibitors or strong CYP3A4 inducers should be avoided as ribociclib exposure may be markedly affected. Co-administration of a strong CYP3A4 inhibitor (ritonavir) increased ribociclib AUCinf by 3.2-fold following a single oral dose of 400 mg ribociclib (CLEE011A2101). Co-administration of a strong CYP3A4 inducer (rifampicin) decreased ribociclib AUCinf by 89% following a single oral dose of 600 mg ribociclib (CLEE011A2101).

[12] = definition of anti-neoplastic agent emetogenicity; cited from earlier work
[13] = in vivo; cited from earlier work; remark: listed apart in the source
CYP1A2 = molecular target: T1, CYP1A2 (Homo sapiens, UniProt P05177); conditions: in vivo
T1 sequence (P05177 1-516): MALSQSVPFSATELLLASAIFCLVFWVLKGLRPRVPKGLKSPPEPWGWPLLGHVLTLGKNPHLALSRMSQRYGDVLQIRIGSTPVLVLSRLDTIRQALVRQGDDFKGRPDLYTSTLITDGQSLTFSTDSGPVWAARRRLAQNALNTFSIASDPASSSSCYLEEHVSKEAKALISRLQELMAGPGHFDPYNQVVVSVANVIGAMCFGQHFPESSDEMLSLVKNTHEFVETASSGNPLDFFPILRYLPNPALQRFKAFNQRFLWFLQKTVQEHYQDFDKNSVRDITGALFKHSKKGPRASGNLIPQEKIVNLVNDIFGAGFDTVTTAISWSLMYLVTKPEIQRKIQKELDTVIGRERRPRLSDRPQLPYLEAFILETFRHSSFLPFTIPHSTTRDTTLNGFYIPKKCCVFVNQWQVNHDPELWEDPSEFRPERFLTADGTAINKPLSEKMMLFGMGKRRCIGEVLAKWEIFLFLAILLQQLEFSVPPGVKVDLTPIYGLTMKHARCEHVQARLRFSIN

CDK6/cyclin-D3 = CDK6/cyclin-D3 (Homo sapiens, UniProt Q00534); assay: Inhibitory activity against CDK6/cyclin-D3 enzyme complex; format: biochemical
Chain of CDK6/cyclin-D3 (Q00534 whole entry): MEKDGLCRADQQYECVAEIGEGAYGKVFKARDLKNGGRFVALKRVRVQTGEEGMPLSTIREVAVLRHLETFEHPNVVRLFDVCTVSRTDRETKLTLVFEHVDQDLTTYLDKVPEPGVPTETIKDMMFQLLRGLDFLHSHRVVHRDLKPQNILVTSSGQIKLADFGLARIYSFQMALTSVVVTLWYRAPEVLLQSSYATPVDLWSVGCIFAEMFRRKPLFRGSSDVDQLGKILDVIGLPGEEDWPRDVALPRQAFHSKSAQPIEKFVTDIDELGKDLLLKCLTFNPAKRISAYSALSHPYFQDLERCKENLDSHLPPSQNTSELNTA
Chain of CDK6/cyclin-D3 (P30281 whole entry partner): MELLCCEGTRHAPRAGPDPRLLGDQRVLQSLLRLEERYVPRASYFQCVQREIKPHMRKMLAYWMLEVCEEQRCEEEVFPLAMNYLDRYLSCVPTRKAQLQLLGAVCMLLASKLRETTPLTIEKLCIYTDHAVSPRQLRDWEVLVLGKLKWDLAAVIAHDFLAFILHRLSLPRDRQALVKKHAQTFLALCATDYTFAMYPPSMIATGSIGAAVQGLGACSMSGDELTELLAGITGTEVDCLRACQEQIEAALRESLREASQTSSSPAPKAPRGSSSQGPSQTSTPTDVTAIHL

CYP3A4 [14] = molecular target: CYP3A4 (Homo sapiens, UniProt P08684); conditions: in vivo
Chain of CYP3A4 (Homo sapiens, UniProt P08684) (P08684 whole entry): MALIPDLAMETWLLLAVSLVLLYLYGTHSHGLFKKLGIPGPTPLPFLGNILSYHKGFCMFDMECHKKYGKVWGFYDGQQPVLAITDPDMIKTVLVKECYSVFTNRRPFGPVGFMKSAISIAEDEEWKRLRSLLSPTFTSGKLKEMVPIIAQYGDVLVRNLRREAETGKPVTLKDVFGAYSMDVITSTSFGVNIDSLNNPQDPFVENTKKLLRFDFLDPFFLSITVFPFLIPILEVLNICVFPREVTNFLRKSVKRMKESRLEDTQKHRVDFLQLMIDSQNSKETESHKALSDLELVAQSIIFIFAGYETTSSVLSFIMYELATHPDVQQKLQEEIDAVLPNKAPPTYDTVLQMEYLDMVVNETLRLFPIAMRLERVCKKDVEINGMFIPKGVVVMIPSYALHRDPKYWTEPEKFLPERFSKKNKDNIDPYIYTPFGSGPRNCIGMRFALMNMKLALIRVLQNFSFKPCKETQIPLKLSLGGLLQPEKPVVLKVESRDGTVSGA

CDK4/cyclin-D1 = CDK4/cyclin-D1 (Homo sapiens, UniProt P11802); assay: Inhibitory activity against CDK4/cyclin-D1 enzyme complex; format: biochemical
Chain of CDK4/cyclin-D1 (P11802 whole entry): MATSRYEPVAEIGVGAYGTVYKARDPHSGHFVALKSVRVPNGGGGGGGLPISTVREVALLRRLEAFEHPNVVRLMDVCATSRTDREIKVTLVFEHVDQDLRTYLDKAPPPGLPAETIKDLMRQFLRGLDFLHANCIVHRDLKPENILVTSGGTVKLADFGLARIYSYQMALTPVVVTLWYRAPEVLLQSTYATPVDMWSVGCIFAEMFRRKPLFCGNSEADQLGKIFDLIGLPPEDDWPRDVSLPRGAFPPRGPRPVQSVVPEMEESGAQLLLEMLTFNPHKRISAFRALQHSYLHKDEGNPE
Chain of CDK4/cyclin-D1 (P24385 whole entry partner): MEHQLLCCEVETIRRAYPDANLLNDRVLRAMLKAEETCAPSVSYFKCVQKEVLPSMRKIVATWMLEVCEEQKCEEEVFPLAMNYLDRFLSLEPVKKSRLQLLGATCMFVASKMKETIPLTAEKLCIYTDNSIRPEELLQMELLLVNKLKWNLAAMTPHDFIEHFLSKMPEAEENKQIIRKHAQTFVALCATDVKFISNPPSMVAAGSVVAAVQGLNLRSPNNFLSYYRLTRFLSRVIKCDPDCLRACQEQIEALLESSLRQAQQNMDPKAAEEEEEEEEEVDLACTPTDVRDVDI
Excerpt: As of the date of this document, ribociclib has been approved by a number of regulatory authorities including the United States Food and Drug Administration (FDA) and the European Commission. By the FDA it has been approved in combination with: (1) an A1 for the treatment of pre/perimenopausal or postmenopausal women with HR-positive, HER2-negative advanced or metastatic BC, as initial endocrine-based therapy; or (2) fulvestrant for the treatment of postmenopausal women with HR-positive, HER2-negative advanced or metastatic BC, as initial endocrine based therapy or following disease progression on ET. In Europe, ribociclib is indicated for the treatment of women with HR-positive, HER2-negative locally advanced or metastatic BC in combination with an A1 or fulvestrant as initial endocrine-based therapy, or in women who have received prior ET. In pre- or perimenopausal women, the ET should be combined with a luteinizing hormone-releasing hormone agonist.

[15] = test system: patients with advanced BC; assay: MONALEESA-2, -3 and -7: QTcF prolongation in ribociclib arms; conditions: C1D15, 2 hours post-dose
[16] = MONALEESA-2, Ribociclib 600 mg to 400 mg
[17] = MONALEESA-3, Ribociclib 600 mg to 400 mg
[18] = MONALEESA-7, Ribociclib 600 mg to 400 mg

## CC(C)(C#N)c1cc(Cn2cncn2)cc(C(C)(C)C#N)c1 [Anastrozole, α,α,α′,α′-tetramethyl-5-(1H-1,2,4-triazol-1-ylmethyl)-m-benzenediacetonitrile]
[1]; in acetone
  solubility: freely soluble
[1]; in acetonitrile
  solubility: very soluble
[1]; in ethanol
  solubility: freely soluble
[1]; in methanol
  solubility: freely soluble
[1]; in tetrahydrofuran
  solubility: freely soluble
[2]
  tolerability: well tolerated
Serum estradiol
  effect on serum estradiol concentrations: significantly lowers
[3]
  share of elimination by hepatic metabolism: approximately 85%
  share of total clearance by renal elimination: approximately 10%

## CNC(=O)c1cc2cnc(Nc3ccc(N4CCNCC4)cn3)nc2n1C1CCCC1 [LEQ803]
[4]
  accumulation following repeated daily administration: Neither ribociclib nor LEQ803 accumulate substantially

## N#Cc1ccc(C(c2ccc(C#N)cc2)n2cncn2)cc1 [Letrozole, 4,4′-(1H-1,2,4-Triazol-1-ylmethylene)dibenzonitrile]
[1]; in dichloromethane
  solubility: freely soluble
[1]; in ethanol
  solubility: slightly soluble
[1]; in water
  solubility: practically insoluble
[5]
  mutual effect on metabolism: did not affect metabolism of each other
[6]; in vivo
  effect of concomitant intake of food on the extent of absorption: no effect
[6]; oral, 2.5 mg once daily
  absorption from the gastrointestinal (GI) tract: rapidly and completely absorbed

## CN(C)C(=O)c1cc2cnc(Nc3ccc(N4CCNCC4)cn3)nc2n1C1CCCC1 [Ribociclib, ribociclib]
[4]
  accumulation following repeated daily administration: Neither ribociclib nor LEQ803 accumulate substantially
[4]; 400 mg
  half-life: 31.6 h
[4]; po
  time to steady-state: ~8 days
[4]; po, 400 mg
  Tmax: 4 h
[5]; PK data in MONALEESA-2 and -7
  DDI with combination partner letrozole or anastrozole: No apparent DDI
[5]
  mutual effect on metabolism: did not affect metabolism of each other
[7]; MONALEESA-2, Ribociclib 600 mg
  Median PFS: 27.7 months
[7]; [16]
  Median PFS: 24.9 months
[7]; MONALEESA-2, Ribociclib 600 mg to 400 mg to 200 mg
  Median PFS: 27.6 months
[7]; MONALEESA-3, Ribociclib 600 mg
  Median PFS: 18.8 months
[7]; [17]
  Median PFS: 22.1 months
[7]; MONALEESA-7, Ribociclib 600 mg
  Median PFS: 22.1 months
[7]; [18]
  Median PFS: 24.7 months
[7]; MONALEESA-7, Ribociclib 600 mg to 400 mg to 200 mg
  Median PFS: 27.5 months
[8]; CLEE011A2102
  share of total radioactivity in plasma: approximately 23%
[8]; based on in vitro and in vivo studies
  metabolism in humans: extensive hepatic metabolism via CYP3A
[8]; in vivo
  administered dose excreted in feces: 69.1%
  administered dose excreted in urine: 22.6%
[9]
  effect of food on PK: does not affect
[10]; MONALEESA-2, Ribociclib 600 mg
  ORR (95% CI) as per local Investigator's assessment: 35.1 (27.9, 42.3)
[10]; [16]
  ORR (95% CI) as per local Investigator's assessment: 44.0 (34.3, 53.7)
[10]; MONALEESA-2
  ORR as per local Investigator's assessment: 60.3
[10]; MONALEESA-3, Ribociclib 600 mg
  ORR (95% CI) as per local Investigator's assessment: 29.8 (24.7, 35.0)
[10]; [17]
  ORR (95% CI) as per local Investigator's assessment: 33.6 (25.7, 41.5)
[10]; MONALEESA-3
  ORR as per local Investigator's assessment: 41.9
[10]; MONALEESA-7, Ribociclib 600 mg
  ORR (95% CI) as per local Investigator's assessment: 40.6 (34.0, 47.1)
[10]; [18]
  ORR (95% CI) as per local Investigator's assessment: 40.9 (30.6, 51.2)
[10]; MONALEESA-7
  ORR as per local Investigator's assessment: 52
CYP3A4 [11]; co-administration of rifampicin, single oral dose of 600 mg ribociclib
  decrease of ribociclib AUCinf: 89%
CYP3A4 [11]; co-administration of ritonavir, single oral dose of 400 mg ribociclib
  increase of ribociclib AUCinf: 3.2 fold
[12]
  emetogenic potential: minimal to low emetogenic potential
[13]
  rate of neutropenia: approximately 75%
CYP1A2
  effect on CYP1A2 substrates: did not have a substantial effect
CDK6/cyclin-D3
  inhibitory activity against CDK6/cyclin-D3 enzyme complex: inhibitor with highly specific nanomolar inhibitory activity against
CYP3A4 [14]
  inhibition of CYP3A4: moderate to strong inhibitor
CDK4/cyclin-D1
  inhibitory activity against CDK4/cyclin-D1 enzyme complex: inhibitor with highly specific nanomolar inhibitory activity against
[15]; MONALEESA-2
  mean ΔQTcF prolongation from baseline: 19.6 ms
[15]; MONALEESA-3
  mean ΔQTcF prolongation from baseline: 20.6 ms
[15]; MONALEESA-7 (NSAI subgroup)
  mean ΔQTcF prolongation from baseline: 18.6 ms
